{
  "source": "patent US20110008343A1",
  "about": "“Method Of Reducing Tissue Loss In Pancreatic Islet Cell Transplantation” (priority 2007, published 2011)",
  "key": {"complement activation": {"tested_on": "complement activation", "assay": "Complement inhibition assay in 10% human serum (bound C3 fragments in microtiter wells)", "assay_type": "biochemical", "description": "Complement inhibition assay: One hundred microliters of 10% human serum (v/v), diluted in veronal buffer with 1 mM Ca^2+, 0.3 mM Mg^2+, 1% (w/v) BSA, and 0.05% (v/v) Tween 20, was incubated in the presence of serially diluted LMW-DS and/or compstatin in wells of microtiter plates for 30 minutes at 37° C. The wells were then washed with PBS containing 0.05% (v/v) Tween 20, and the bound C3 fragments were detected using […], of HRP-conjugated anti-C3c (Dako AS, Glostrup, Denmark)."}, "C3a and sC5b-9": {"tested_on": "C3a and sC5b-9", "assay": "C3a and sC5b-9 generation in supernatants of plasma-incubated human islets (ELISA)", "assay_type": "cell-based", "description": "(§1) Analysis of islets by COPAS and confocal microscopy: Approximately 5000 islets were added to 200 μl of human AB0-compatible hirudin-plasma or whole blood in heparinized test tubes. In some experiments, AB0-compatible hirudin-treated plasma was pre-incubated with or without 10 μM Ac-ICV(1MeW)[…]-NH2 (SEQ ID NO: 4; Katragadda et al., (2006) J Med Chem 49:4616-4622), a potent compstatin analog, for 15 minutes at 37° C. before the islets were added. The mixture of islets and plasma was incubated, with gentle shaking, at 37° C. for up to 30 minutes.\n(§2) After centrifugation and addition of 10 mM EDTA (final concentration), the supernatants were stored at −70° C. The remaining islets were washed twice in cold PBS as described above. […]\nC3a: Plasma was diluted 1/1000 in working buffer and analyzed as described previously (Enkdahl et al., 1992, Scand J Immunol 35: […]). […] Bound C3a was detected with biotinylated rabbit anti-C3a diluted 1/150, followed by HRP-conjugated streptavidin (Amersham, Little Chalfort, UK), diluted 1/500. […]\nsC5b-9: Plasma was analyzed using a modification of the EIA described by Mollnes et al., 1985, Scand J Immunol 22: 197-202. Plasma diluted 1/5 was added to microtiter plates coated with anti-neoC9 monoclonal antibody MCaE11. sC5b-9 was detected with a polyclonal anti-C5 antibody diluted 1/500 (Dako A/S, Denmark), followed by HRP-conjugated anti-rabbit Ig diluted 1/500 (Dako). […]"}, "human islets [1]": {"tested_on": "human islets", "assay": "Lysis of islet cells, PI staining analysed by COPAS", "assay_type": "cell-based", "settings": "AB0-compatible plasma, 37° C., 30 minutes, 10 μM compstatin", "description": "(§3) Complex object parametric analyzer and sorter (COPAS) analysis: The fluorescence-stained islets were analyzed using a complex object parametric analyzer and sorter (COPAS; Union Biometrica, Somerville, Mass.), which is a large-particle-based flow cytometry instrument. One thousand islets were collected using a 488/514 multi-line laser, and positive cells were sorted out for further analysis by confocal microscopy. The COPAS flow cytometry data were analyzed using CellQuest™ Pro software (BD Biosciences Immunocytometry Systems). Data are reported as mean fluorescent intensity (MFI).\nas §1, §2"}, "human islets [2]": {"tested_on": "human islets", "assay": "C-peptide release from human islets in AB0-compatible plasma (ELISA)", "assay_type": "cell-based", "settings": "30 minutes at 37° C., 10 μM compstatin", "description": "as §1\nAfter centrifugation and addition of 10 mM EDTA (final concentration), the supernatants were stored at −70° C. The remaining islets were washed twice in cold PBS as described above. In order to visualize necrotic cells, propidium iodide (PI) was added to the islets 5 minutes before COPAS analysis. Islets that had not been incubated in plasma were used as controls. The islets were also examined by confocal microscopy.\nC-peptide: Plasma was diluted 1/200 and analyzed using a C-peptide ELISA (Mercodia, Uppsala, Sweden)."}, "human islets [3]": {"tested_on": "human islets", "assay": "Binding of C3b/iC3b to human islets incubated in AB0-compatible hirudin-treated plasma (COPAS, confocal microscopy)", "assay_type": "cell-based", "description": "as §3\nConfocal microscopy: Stained islets were contained in a drop of PBS in a small Petri dish and protected from light before examination in the confocal microscope (Zeiss 510 Meta confocal, Carl Zeiss, Jena, Germany). Examination of the stained islets was performed using the 488-nm laser at 10× magnification. […]\nFITC-labeled antibodies recognizing the following proteins were diluted and used according to the manufacturer's recommendations: Clq (AbCam, Cambridge, UK), C3c (for detection of C3b and iC3b), C4, C9, mannose-binding lectin (MBL), IgG, and IgM (DakoCytomation, Glostrup, Denmark). […] After washing, the islets were treated with 1% formaldehyde (Apoteket, Gothenburg, Sweden) and held on ice until analyzed by COPAS and confocal microscopy."}, "porcine islets": {"tested_on": "porcine islets", "assay": "Binding of C3b/iC3b to porcine islets incubated in human hirudin-treated plasma", "assay_type": "cell-based, pig", "settings": "compstatin 10 μM", "description": "Treatment of porcine islets with human plasma: Approximately 1000 pig islets/40 μL of plasma (typically 5000 islets in 200 μL) were incubated in human hirudin-treated plasma in heparinized test tubes. Five different islet preparations and five different plasma preparations were used in these experiments. In some experiments, hirudin-treated plasma was preincubated with 10 μM (final concentration) of the potent compstatin analog, Ac-ICV(1MeW)[…]-NH2 (SEQ ID NO: 4; Katragadda et al., (2006) J Med. Chem. 49 (15): 4616), for 15 minutes at 37° C. before the islets were added. The mixture of islets and plasma was then incubated, with gentle shaking, at 37° C. for up to 30 min. […]\nFor all immunostaining experiments, the islets were incubated, while gently rotating on ice, for 30 minutes in the presence of an individual antibody. After being washed with PBS, the islets were treated with 1% formaldehyde (Apoteket, Gothenburg, Sweden) and kept on ice until analyzed.\nComplex object parametric analyzer and sorter (COPAS) analysis: The fluorescence-stained islets were analyzed using a complex object parametric analyzer and sorter (COPAS; Union Biometrica, Somerville, Mass.), which is a large particle-based flow cytometry instrument previously used for islet analysis (Fernandez et al., (2005) Transplantation 80 (6): 729). […]"}, "[4]": {"assay": "Plasma APTT and LMW-DS concentration in transplanted monkeys", "assay_type": "in vivo, Cynomolgus monkeys (Macaca fascicularis)", "description": "Blood samples: […] […] Analyses of blood and plasma samples: Activated Partial Thromboplastin Time (APTT) measurements were performed as previously described (Johansson et al., (2006) Am J. Transplant. 6 (2): 305)."}, "porcine islet grafts [5]": {"tested_on": "porcine islet grafts", "assay": "Histological evaluation of grafted pig islets 24 h after intraportal transplantation"}, "[6]": {"assay": "Blood cell counts, liver and renal function in monkeys transplanted with porcine islets", "assay_type": "in vivo, Cynomolgus monkeys (Macaca fascicularis)", "settings": "24 hours after islet transplantation; in U/L (unit assumed)"}, "porcine islet grafts [7]": {"tested_on": "porcine islet grafts", "assay": "Immunohistochemical staining of grafted pig islets 24 h after intraportal transplantation"}, "IBMIR": {"tested_on": "IBMIR", "description": "Blood samples: All blood samples from monkeys were drawn from a femoral vein catheter at 0, 20, and 40 min and at 1, 3 and 24 h after transplantation. Blood was drawn from healthy human blood donors into 7-mL tubes containing […] of hirudin, a specific inhibitor of thrombin (Refludan; Pharmion Ltd, Cambridge, UK). To obtain plasma, the samples were centrifuged at 4500×g for 5 min. If not immediately analyzed for activated partial thromboplastin time (APTT), the samples were stored at −70° C.\nPlatelet counts and differential leukocyte counts were obtained using a Coulter ACT-diff analyzer (Beckman Coulter, Miami, Fla.) and EDTA-treated blood. Plasma levels of thrombin-antithrombin (TAT) were quantified using commercially available EIA kits (TAT, Behringswerke, Marburg, Germany). C3a generation was measured in plasma according to the method of Nilsson Ekdahl et al. ((1992) Scand J. Immunol. 35 (1): 85), and sC5b-9 was analyzed using a modification of the enzyme immunoassay described by Nilsson Ekdahl et al. ((1992) Scand J. Immunol. 35 (1): 85) and Mollnes et al. ((1995) Artif Organs 19 (9): 909)."}, "[8]": {"settings": "both treated monkeys compared to the controls"}},
  "note": "“Also recorded” adds a separate entry of the source.",
  "data": [
    {"substance": "Ac-ICV(1MeW)QDWGAHRCT-NH2 [compstatin]", "values": [
      {"measurement": "inhibition of complement activation", "setting": "complement activation; compstatin 5 μM", "value": "total inhibition"},
      {"measurement": "inhibition of complement activation", "setting": "complement activation; compstatin above 0.5 μM", "value": "gradually inhibited"},
      {"measurement": "inhibition of complement activation", "setting": "complement activation; compstatin below 0.5 μM", "value": "no effect"},
      {"measurement": "generation of fluid-phase complement activation products (C3a, sC5b-9)", "setting": "C3a and sC5b-9; human islets, AB0-compatible plasma, compstatin 10 μM", "value": "abrogated"},
      {"measurement": "PI staining (lysis of islet cells)", "setting": "human islets [1]", "value": "totally abrogated"},
      {"measurement": "release of C-peptide", "setting": "human islets [2]", "value": "totally inhibited"},
      {"measurement": "C3b/iC3b binding by confocal microscopy", "setting": "human islets [3]; human islets in plasma, 5 and 30 minutes", "value": "totally prevented"},
      {"measurement": "binding of C3b/iC3b to the islets", "setting": "human islets [3]; human islets, AB0-compatible plasma, compstatin 10 μM, COPAS", "value": "significantly reduced; also recorded: abolished"},
      {"measurement": "binding of C3b/iC3b to the islets", "setting": "porcine islets", "value": "significantly reduced"}
    ]},
    {"substance": "Heparin", "values": [
      {"measurement": "APTT", "setting": "[4]; heparin-treated monkeys, throughout the whole study period", "value": "25 to 40 s (s)"},
      {"measurement": "completely preserved islets (score 0 in all categories)", "setting": "porcine islet grafts [5]; control monkey M-10", "value": 22, "unit": "%"},
      {"measurement": "ALT", "setting": "[6]", "value": "116.8±47.7"},
      {"measurement": "AST", "setting": "[6]", "value": "288.0±130.4"}
    ]},
    {"substance": "Low molecular weight dextran sulfate [LMW-DS]", "values": [
      {"measurement": "inhibition of complement activation", "setting": "complement activation; LMW-DS above 100 mg/L, absence of compstatin", "value": "more pronounced"},
      {"measurement": "inhibition of complement activation", "setting": "complement activation; LMW-DS between 10 and 100 mg/L, absence of compstatin", "value": "only marginally"},
      {"measurement": "APTT", "setting": "[4]; LMW-DS-treated monkeys, 15 minutes after islet infusion", "value": "around 100 s"},
      {"measurement": "APTT", "setting": "[4]; monkey M-5, after 24 hours", "value": 101, "unit": "s"},
      {"measurement": "APTT", "setting": "[4]; monkey M-7, after 24 hours", "value": 66, "unit": "s"},
      {"measurement": "APTT", "setting": "[4]; monkey M-9, after 24 hours", "value": 107, "unit": "s"},
      {"measurement": "deposition of C3 fragment and C9 on the surface of the islets", "setting": "porcine islet grafts [7]; 24 h grafts", "value": "no clear inhibition"},
      {"measurement": "CD3+ T cell infiltration", "setting": "porcine islet grafts [7]; vs controls M8 and M10", "value": "effectively suppressed"},
      {"measurement": "CD68+ macrophages in grafts", "setting": "porcine islet grafts [7]; vs heparin controls, p=0.002", "value": "abrogated"},
      {"measurement": "neutrophil elastase positive PMNs in grafts", "setting": "porcine islet grafts [7]; vs heparin controls, p=0.04", "value": "abrogated"},
      {"measurement": "CD41+ platelets in grafts", "setting": "porcine islet grafts [7]; vs heparin controls, p=0.056", "value": "abrogated"},
      {"measurement": "increase of coagulation marker TAT", "setting": "IBMIR; LMW-DS-treated monkeys vs heparin controls", "value": "effectively inhibited"},
      {"measurement": "complement activation parameter C3a", "setting": "IBMIR; [8]", "value": "suppressed"},
      {"measurement": "complement activation parameter sC5b-9", "setting": "IBMIR; [8]", "value": "suppressed"},
      {"measurement": "TAT", "setting": "IBMIR; monkey M-5", "value": "totally suppressed"},
      {"measurement": "histology of the transplanted grafts", "setting": "porcine islet grafts [5]; 24 h after transplantation, semiquantitative scoring", "value": "well kept"},
      {"measurement": "completely preserved islets (score 0 in all categories)", "setting": "porcine islet grafts [5]; monkey M-6 as printed", "value": 37.2, "unit": "%"},
      {"measurement": "completely preserved islets (score 0 in all categories)", "setting": "porcine islet grafts [5]; monkey M-9", "value": 44, "unit": "%"}
    ]},
    {"substance": "hirudin", "values": [
      {"measurement": "generation of C3a and sC5b-9", "setting": "C3a and sC5b-9; islets in whole blood anticoagulated with hirudin, n=4", "value": "no effect"}
    ]}
  ]
}
